Source: publication PMC10987619, “Identification and structural characterization of small molecule inhibitors of PINK1” (Scientific Reports, 2024)

Experiments:
[1] = molecular target: T1, TcPINK1 (Tribolium castaneum, UniProt D6WMX4); assay: In vitro ubiquitin kinase assay with tetraubiquitin (Ub4), pUb immunoblot; format: biochemical; conditions: 100 µM compound; for Inhibition of Ub4 phosphorylation (kinase activity of TcPINK1): 100 µM ATP, 5 min, 30 °C
T1 construct: GST (N, cleaved yes); made in house; host or cells: E. coli
T1 sequence (D6WMX4 121-570 limits assumed): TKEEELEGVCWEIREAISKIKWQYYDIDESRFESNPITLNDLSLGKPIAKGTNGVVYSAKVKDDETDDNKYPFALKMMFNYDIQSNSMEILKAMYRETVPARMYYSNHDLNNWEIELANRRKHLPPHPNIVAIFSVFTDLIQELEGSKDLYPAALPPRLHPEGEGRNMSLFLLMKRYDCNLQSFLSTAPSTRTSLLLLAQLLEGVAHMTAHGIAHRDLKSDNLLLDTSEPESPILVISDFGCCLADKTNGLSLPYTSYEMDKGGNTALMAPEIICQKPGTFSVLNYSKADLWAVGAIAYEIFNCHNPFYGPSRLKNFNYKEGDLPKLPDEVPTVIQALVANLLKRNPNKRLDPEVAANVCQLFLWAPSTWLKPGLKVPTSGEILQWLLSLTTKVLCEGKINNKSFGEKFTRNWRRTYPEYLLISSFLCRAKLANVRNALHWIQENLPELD
Method: Inhibitors were purchased from different sources via Cedarlane Laboratories (catalog # in parenthesis). […] Olaparib was sent by mistake by Adooq Bioscience under cat #P505-15 and identified by LC–MS/MS (MS^1: m/z 435.183; MS^2: m/z 367.157, 281.072). MTK458 was donated by Mitokinin. The racemic PRT-core was custom synthesised by ChemSpace (CSCS02808122161). Kinase activity assays were performed by mixing 5 nM of purified TcPINK1 with 100 µM ATP, 100 µM small molecules from 10 mM stock in DMSO, 200 µM MgCl2 in kinase buffer (final 1% DMSO). The reactions were left in a 30 °C incubator for 5 min for TcPINK1. The reactions were stopped with the addition of Laemmli buffer (2% SDS, 0.1% bromophenol blue (SigmaAldrich), 10% glycerol, 100 mM DTT) final concentration 1X. The entire reaction was loaded onto a 12.5% Tris-Tricine gel (1 M Tris–HCl pH 8.45, 12.5% acrylamide, 0.1% SDS, 0.1% APS, 0.04% TEMED). Protein from a 12.5% polyacrylamide gel were transferred onto an immuno-blot polyvinylidene fluoride (PVDF) membrane (Bio-rad). The membranes were stained with 1% Ponceau and imaged using the ImageQuant LAS 500. The membrane was washed with distilled water and then blocked in 5% BSA diluted in tris buffered saline with 0.1% Tween (TBS-T) for 1 h. The membrane was briefly rinsed and left to incubate with primary antibody anti-pS65-Ub (E2J6T; rabbit mAb, CST, 62802) at a 1:10,000 dilution in TBS-T for 2 h. The membrane was further rinsed three times for 10 min with TBS-T before incubating it with a 1:2000 dilution of secondary antibody, anti-rabbit horseradish peroxidase (HRP)-conjugated antibodies (CST, 7074), in TBS-T. The membrane was rinsed three times for 10 min in TBS followed by the addition of 1 mL ECL solution (BioRad) to the membrane and visualized on the ImageQuant LAS 500. Densitometry was performed using the Fiji software.

[2] = molecular target: T2, TcPINK1 121-570 (TcPINK1-4arom) (Tribolium castaneum, UniProt D6WMX4, F401A/W131A/W142A/Y225A); assay: Isothermal titration calorimetry; format: binding; conditions: AMP-PNP (syringe) into TcPINK1 (cell), 20 °C, one-site model
T2 construct: GST (N, cleaved yes); made in house; host or cells: E. coli BL21 DE3
Method: The isothermal titration calorimetry (ITC) assay was performed using the Microcal ITC 200-1 instrument. […] Experiment involved 29 injections of AMP-PNP at 1.5 mM into a sample cell containing 350 μL of 100 µM TcPINK1-4arom at 20 °C. Data was fitted to a one-site model and background was subtracted using the Origin v7 software.

[3] = molecular target: T3, TcPINK1 (Tribolium castaneum, UniProt D6WMX4); assay: Kinase Glo luminescence assay (ATP hydrolysis) IC50 determination; format: biochemical; conditions: 1 µM unphosphorylated TcPINK1, 10 µM ATP, 5 min, 30 °C
T3 construct: TcPINK1 (121–570) ampicillin-resistant plasmids were co-expressed in BL21 DE3 E. coli with lambda phosphatase; GST (N, cleaved yes); made in house; host or cells: E. coli BL21 DE3
Method: The Kinase Glo Max (cat #V6071) kit assay was used to measure the ATP consumed in the kinase assays. Unphosphorylated 1 µM TcPINK1 was incubated with 10 µM ATP for 5 min at 30 °C in kinase buffer ([…]). […] The kinase buffer consists of 50 mM Tris–HCl pH 7.5, 300 mM NaCl, 1 mM DTT. 100 µL of kinase at 1 µM was added to 100 µL kinase buffer with inhibitor and left in a 30 °C incubator. After the 5-min mark, 200 µL kinase glo was added to stop the reaction. 100 µL of the sample was then pipetted into 3 wells of an opaque white 96-well plate. The luminescence was measured using the Orion II Microplate Luminometer and obtained using the Simplicity 4.2 program. […] The ATP concentration remaining in the reaction was calculated from the linear equation of the ATP standard curve. This number was then divided by the amount of ATP initially present and multiplied by 100 to obtain the percent inhibition. The values were normalized according to the baseline (no inhibitor). The points plotted on a non-linear regression graph in GraphPad Prism 7. The IC50 value and standard deviation were determined in GraphPad.

[4] = molecular target: T4, human PINK1 (HsPINK1) (Homo sapiens, UniProt Q9BXM7); assay: In organello Ub4 kinase assay with mitochondria isolated from CCCP-treated HeLa cells; format: biochemical; conditions: 100 µM compound, 0.1 mM ATP, 15 min, 30 °C
T4 construct: host or cells: HeLa (mitochondria isolated after CCCP)
Method: Wild type (WT) HeLa cells (ATCC #CCL-2) were cultured in DMEM medium supplemented with 10% fetal bovine serum (FBS) at 37 °C and 5% CO2 in a humidified atmosphere. Cells were then treated with 20 µM CCCP for 3 h to induce the accumulation of PINK1. Cells were then washed twice in ice-cold mitochondrial isolation buffer (MIB: 20 mM HEPES, 70 mM sucrose, 220 mM mannitol, pH 7.4, 1 mM EDTA, Complete protease inhibitors), resuspended in MIB and lysed using nitrogen cavitation for 5 min at 500 psi. Cell debris were removed by centrifugation at 500 g for 5 min, and mitochondria were pelleted by centrifugation at 20,000g for 20 min. 7.5 µg of mitochondria was incubated with 3.75 µg Ub4, 5 mM MgCl2, 0.1 mM ATP and 100 µM of each inhibitor for 15 min at 30 °C. The reaction was quenched with Laemlli buffer and loaded on a gel for immunoblotting as described above. The following antibodies were used: anti-pS65-Ub (E2J6T; rabbit mAb, CST, 62802), anti-PINK1 (D8G3; rabbit IgG mAb; CST, 6946), anti-cytochrome C (136F3, recombinant rabbit mAb, CST, 4280), and HRP-conjugated secondary anti-rabbit (CST, 7074).

[5] = molecular target: T5, endogenous PINK1 in dopaminergic (DA) neurons (Homo sapiens, UniProt Q9BXM7); assay: Assay with dopaminergic neurons (CCCP, immunoblot); format: cell-based; conditions: 48 h compound then 20 µM CCCP 2 h
T5 construct: host or cells: ReN VM cells differentiated to dopamine neurons

[6] = molecular target: T6, human PINK1 (PINK1-3HA) in HeLa S3 cells (Homo sapiens, UniProt Q9BXM7); assay: HeLa S3 cells IC50 determination (pUb immunoblot after CCCP); format: cell-based; conditions: HeLa S3 PINK1-3HA, CCCP 4 h
T6 construct: expressed in transfected cells; host or cells: HeLa S3

[7] = molecular target: T7, TcPINK1 (Tribolium castaneum, UniProt D6WMX4); assay: Autophosphorylation (transphosphorylation) assay by intact LC-MS; format: biochemical; conditions: 100 µM compound, 5 µM TcPINK1, 1 mM ATP, 30 °C
T7 sequence (D6WMX4 128-570 limits assumed): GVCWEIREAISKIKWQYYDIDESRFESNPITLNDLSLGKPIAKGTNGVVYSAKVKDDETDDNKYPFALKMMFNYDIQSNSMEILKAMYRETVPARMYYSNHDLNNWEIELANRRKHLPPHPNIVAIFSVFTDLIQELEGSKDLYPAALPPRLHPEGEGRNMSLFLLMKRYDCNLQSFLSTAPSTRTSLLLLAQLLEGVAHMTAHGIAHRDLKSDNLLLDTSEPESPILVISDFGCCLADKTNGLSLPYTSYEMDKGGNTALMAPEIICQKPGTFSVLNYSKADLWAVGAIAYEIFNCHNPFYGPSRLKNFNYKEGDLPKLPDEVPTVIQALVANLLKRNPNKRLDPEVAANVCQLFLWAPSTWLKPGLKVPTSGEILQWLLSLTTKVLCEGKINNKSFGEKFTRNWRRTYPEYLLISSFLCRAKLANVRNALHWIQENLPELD
Method: Intact protein mass spectrometry was used to monitor transphosphorylation of TcPINK1-D337N by ^15N-TcPINK1-WT, as described previously. ^15N-TcPINK1 at 5 μM was combined with 5 μM TcPINK1-D337N, 100 μM compound of interest, 1 mM ATP, 2 mM MgSO4 in 300 mM NaCl, 50 mM Tris–HCl pH 8, 2 mM DTT with 2% DMSO at 30 °C for transphosphorylation reactions with timepoints of 0 s, 30 s, 60 s, and 120 s. Timepoint reactions were stopped by addition of 0.05% TFA and 2% acetonitrile (final concentrations). Reactions in 20 μL were injected on a Dionex C4 Acclaim 1.0/15 mm column followed by a 10 min 4–50% gradient of ACN in 0.1% formic acid with a flow rate of 40 μL/min. The eluate was analyzed on a Bruker Impact II Q-TOF mass spectrometer equipped with an Apollo II ion funnel ESI source. The multiply charged ions were deconvoluted at 10,000 resolution using the maximum entropy method. The signal intensity of the nonphosphorylated and phosphorylated TcPINK1-D337N peaks were estimated using the DataAnalysis software integration tool and used to calculate the fraction phosphorylated.

[8] = system: FGR; conditions: cited from earlier work
[9] = system: MLK1; conditions: cited from earlier work
[10] = molecular target: T8, GST-TcPINK1 (Tribolium castaneum, UniProt D6WMX4); assay: In vitro ubiquitin kinase assay with monoubiquitin, Phos-tag gel; format: biochemical; conditions: 5 µM GST-TcPINK1, 30 µM ubiquitin, 1 mM ATP, 37 °C
T8 construct: made in house; host or cells: E. coli
Method: (a) Thermal shift assay screen of kinase inhibitors against Tribolium castaneum PINK1 (TcPINK1) with melting temperature increase of 1.5 °C and above. Error bars indicate standard error of ΔTm estimation from melting curves (n = 1). (b) In vitro ubiquitin kinase assays with TcPINK1 and tetraubiquitin (Ub4). Reactions were analyzed by immunoblotting against phospho-ubiquitin (pUb). […] The ponceau staining of the above gel is shown as loading control. (c) In vitro ubiquitin kinase assays with 5 μM GST-TcPINK1 and 30 μM ubiquitin, as well as 1 mM ATP at 37 °C (n = 1). Reactions were analyzed using a phos-tag gel and stained by Coomassie blue. (d) Chemical structures of identified PINK1 inhibitors.

[11] = molecular target: FMS-like tyrosine kinase 3 (FLTK3); conditions: read-out: Inhibition of FLTK3; cited from earlier work

T5 sequence (Q9BXM7 78-581): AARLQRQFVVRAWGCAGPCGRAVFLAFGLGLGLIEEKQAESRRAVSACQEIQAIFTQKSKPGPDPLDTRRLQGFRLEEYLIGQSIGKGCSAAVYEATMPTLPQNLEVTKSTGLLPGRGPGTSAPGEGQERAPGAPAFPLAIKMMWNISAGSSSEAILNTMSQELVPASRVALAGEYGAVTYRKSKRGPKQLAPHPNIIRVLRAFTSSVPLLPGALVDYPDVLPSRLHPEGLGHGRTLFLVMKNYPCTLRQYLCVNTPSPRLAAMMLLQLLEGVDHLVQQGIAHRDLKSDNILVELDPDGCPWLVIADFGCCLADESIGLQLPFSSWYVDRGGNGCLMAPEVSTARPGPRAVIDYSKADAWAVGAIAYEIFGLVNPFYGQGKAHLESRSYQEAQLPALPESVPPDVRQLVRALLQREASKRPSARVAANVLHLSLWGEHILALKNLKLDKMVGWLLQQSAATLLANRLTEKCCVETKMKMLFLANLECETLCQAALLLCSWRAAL
T4 sequence (Q9BXM7 78-581): as above
T6 sequence (Q9BXM7 78-581): as above
T8 sequence (D6WMX4 with tags, fused parts or gaps limits assumed): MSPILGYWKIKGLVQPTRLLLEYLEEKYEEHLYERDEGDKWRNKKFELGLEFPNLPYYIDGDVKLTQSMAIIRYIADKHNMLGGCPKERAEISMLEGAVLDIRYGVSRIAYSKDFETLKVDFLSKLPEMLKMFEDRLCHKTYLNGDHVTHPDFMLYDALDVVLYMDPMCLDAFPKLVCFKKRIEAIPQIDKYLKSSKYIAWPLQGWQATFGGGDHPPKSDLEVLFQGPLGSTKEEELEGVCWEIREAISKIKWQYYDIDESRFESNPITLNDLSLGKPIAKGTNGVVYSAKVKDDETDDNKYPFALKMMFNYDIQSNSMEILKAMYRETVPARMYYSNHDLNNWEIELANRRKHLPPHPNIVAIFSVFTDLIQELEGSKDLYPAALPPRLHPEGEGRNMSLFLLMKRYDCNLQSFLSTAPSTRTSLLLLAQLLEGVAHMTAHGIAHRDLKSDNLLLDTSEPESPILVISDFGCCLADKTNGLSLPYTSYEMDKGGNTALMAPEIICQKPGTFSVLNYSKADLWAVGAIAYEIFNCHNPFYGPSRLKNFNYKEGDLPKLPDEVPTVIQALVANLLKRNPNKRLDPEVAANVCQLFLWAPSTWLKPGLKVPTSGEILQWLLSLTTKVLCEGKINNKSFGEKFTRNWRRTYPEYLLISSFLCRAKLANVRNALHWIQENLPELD
T2 sequence (D6WMX4 121-570 W131A/W142A/Y225A/F401A): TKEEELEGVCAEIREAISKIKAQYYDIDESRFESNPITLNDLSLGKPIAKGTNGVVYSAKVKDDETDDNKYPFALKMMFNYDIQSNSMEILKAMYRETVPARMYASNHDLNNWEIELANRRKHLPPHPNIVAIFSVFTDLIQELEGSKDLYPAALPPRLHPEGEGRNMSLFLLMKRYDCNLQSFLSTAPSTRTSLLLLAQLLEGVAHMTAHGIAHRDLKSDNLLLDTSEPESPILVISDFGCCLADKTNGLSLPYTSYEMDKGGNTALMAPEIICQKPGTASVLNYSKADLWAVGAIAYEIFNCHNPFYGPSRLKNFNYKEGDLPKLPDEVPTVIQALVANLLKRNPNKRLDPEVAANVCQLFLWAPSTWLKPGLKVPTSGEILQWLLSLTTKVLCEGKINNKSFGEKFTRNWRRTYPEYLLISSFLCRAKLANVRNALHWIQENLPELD

Compound | Inhibition of Ub4 phosphorylation (kinase activity of TcPINK1) [1] | IC50 [3] | Inhibition of human PINK1 Ub4 phosphorylation in organello [4] | further results
NC(=O)c1cnc(N[C@@H]2CCCC[C@@H]2N)nc1Nc1ccccc1 (racemic) [PRT-core] | inhibit the kinase activity of TcPINK1 |  |  | 
Nc1ncnc2c1ncn2[C@@H]1O[C@H](COP(=O)(O)OP(=O)(O)NP(=O)(O)O)[C@@H](O)[C@H]1O [AMP-PNP] |  |  |  | Kd [2]: 96 µM
Cc1nc(N)sc1-c1ccnc(Nc2ccc(N3CCOCC3)cc2)n1 [CYC116] |  | 65.4 ± 1.1 µM |  | 
Nc1nc(Nc2ccc(S(N)(=O)=O)cc2)nn1C(=O)c1c(F)cccc1F [JNJ-7706621] |  | 27.6 ± 1.1 µM |  | 
FC(F)(F)c1cc2c(N[C@@H]3CCCc4ccccc43)ncnc2[nH]1 [MTK458] |  |  | does not significantly affect Ub4 phosphorylation | 
Cc1cccc(Nc2nc(N[C@@H]3CCCC[C@@H]3N)ncc2C(N)=O)c1 [PRT060318] | inhibit the kinase activity of TcPINK1 | 2.5 µM | most potent inhibitors of human PINK1 kinase activity | 
NC(=O)c1cnc(N[C@@H]2CCCC[C@@H]2N)nc1Nc1cccc(-n2nccn2)c1 [PRT062607] | inhibits Ub4 phosphorylation most strongly |  | most potent inhibitors of human PINK1 kinase activity | Mfn2 ubiquitination [5]: inhibition of Mfn2 ubiquitination; Potential-dependent cleavage of Opa1 to its short isoform [5]: not affected; pUb signal [5]: reduction of the pUb signal in a dose-dependent manner; PINK1 levels (HA blot) [6]: not substantially affected; TcPINK1 autophosphorylation [7]: inhibits TcPINK1 autophosphorylation; IC50 [8]: 0.081 µM; IC50 [9]: […]; Inhibition of monoubiquitin phosphorylation [10]: inhibits TcPINK1
Cn1cc(-c2nc(N[C@@H]3CCCC[C@@H]3N)c(F)c3c2C(=O)NC3)cn1 [TAK-659] | inhibit the kinase activity of TcPINK1 | 6.4 ± 1 µM |  | IC50 [11]: 0.005 µM
CNCc1ccc(-c2cc(-c3nc(-c4ccc(S(=O)(=O)C(C)C)cc4)cnc3N)on2)cc1 [VE822] |  |  | does not significantly impact HsPINK1 | TcPINK1 activity compared to control ([1]; Ub4 substrate): 8%
